Assay type in all cases: cell-based
Assay [1] addresses T1, variant human OCT1*2 (M420del) (Homo sapiens, UniProt O15245, DEL420-420).
T1 construct: expressed in transfected cells
T1 sequence (O15245 with tags, fused parts or gaps DEL420-420): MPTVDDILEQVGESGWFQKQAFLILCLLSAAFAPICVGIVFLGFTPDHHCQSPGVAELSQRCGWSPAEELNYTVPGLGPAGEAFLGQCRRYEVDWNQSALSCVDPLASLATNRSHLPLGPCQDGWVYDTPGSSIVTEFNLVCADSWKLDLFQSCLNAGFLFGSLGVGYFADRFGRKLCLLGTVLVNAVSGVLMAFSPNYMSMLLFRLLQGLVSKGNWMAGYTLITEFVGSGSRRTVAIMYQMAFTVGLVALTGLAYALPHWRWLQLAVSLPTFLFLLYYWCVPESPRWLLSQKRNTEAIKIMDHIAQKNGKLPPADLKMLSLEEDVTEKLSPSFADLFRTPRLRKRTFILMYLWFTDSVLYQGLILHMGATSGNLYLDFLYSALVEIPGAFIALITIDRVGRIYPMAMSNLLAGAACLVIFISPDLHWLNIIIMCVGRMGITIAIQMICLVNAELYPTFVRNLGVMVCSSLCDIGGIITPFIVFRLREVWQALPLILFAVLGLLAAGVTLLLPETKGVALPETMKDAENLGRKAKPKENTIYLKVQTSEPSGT
Briefly: Cellular uptake by HEK293 cells overexpressing OCT1*2. The note with it: for uptake of prostaglandins by OCT1*2 in comparison to wild-type: 1, 10 and 100 µM, 120 s; for uptake by OCT1*2 in comparison to OCT1*1: 1 µM substance. The procedure: The wild-type cell lines of OCT1 and OCT2, as well as the variant cell lines OCT1*2 and *3, were generated using the Flp-In system (Thermo Fisher Scientific, Darmstadt, Germany) as described in previous publications. The cell line overexpressing OCT3 was a kind gift from Dr. Koepsell and Dr. Gorbulev (University of Würzburg, Germany). Cells transfected with the empty pcDNA5/FRT vector were used for the transport experiments as a control cell line. All cells were cultured approximately up to passage 30.
Forty-eight hours before the transport experiments, 600,000 cells were plated on 12-well plates pre-coated with poly-D-lysine and incubated at 37 °C with 5% CO2. The prepared 12-well plate with cells was positioned on a heating plate pre-warmed to 37 °C. After removing the medium, the cells were washed with 37 °C HBSS+ (10 mM HEPES in Hank’s balanced salt solution, pH 7.4). Then, one pre-defined concentration of a substrate was added to each well. The incubation period was stopped by adding 2 mL of 4 °C HBSS+ and removing the cells from the heating plate. The cells were washed twice with 4 °C HBSS+. For cell lysis, the cells were incubated for 15 min with 500 µL of 80% acetonitrile (LGC Standards, Wesel, Germany), which contained a respective internal standard (Table 1).
For concentration-dependent transport, the cells were incubated with defined substrate concentrations (0.1, 1, 10, 30, 100, 300, 600, 1000 µM) for the respective pre-defined incubation times. […] The uptake by a transporter was normalised to the uptake by empty vector-transfected cells. […] The results of transport experiments were normalized to the total protein concentration per well. Total protein quantification was performed using a bicinchoninic acid assay with bovine serum albumin as standard.
The ratios of cellular uptake were calculated by dividing the total uptake of transporter-overexpressing cells by the total uptake into empty vector transfected cells. The concentration-dependent cellular net uptake was used for analysis of transport kinetics by subtracting for each substrate concentration the uptake of empty vector-transfected cells from the uptake of transporter-overexpressing cells. […] The intrinsic clearance Clint was expressed with the ratio of Vmax and KM.

In assay [2] the target is T2, wild-type human OCT2 (Homo sapiens, UniProt O15244).
T2 sequence (O15244 1-555): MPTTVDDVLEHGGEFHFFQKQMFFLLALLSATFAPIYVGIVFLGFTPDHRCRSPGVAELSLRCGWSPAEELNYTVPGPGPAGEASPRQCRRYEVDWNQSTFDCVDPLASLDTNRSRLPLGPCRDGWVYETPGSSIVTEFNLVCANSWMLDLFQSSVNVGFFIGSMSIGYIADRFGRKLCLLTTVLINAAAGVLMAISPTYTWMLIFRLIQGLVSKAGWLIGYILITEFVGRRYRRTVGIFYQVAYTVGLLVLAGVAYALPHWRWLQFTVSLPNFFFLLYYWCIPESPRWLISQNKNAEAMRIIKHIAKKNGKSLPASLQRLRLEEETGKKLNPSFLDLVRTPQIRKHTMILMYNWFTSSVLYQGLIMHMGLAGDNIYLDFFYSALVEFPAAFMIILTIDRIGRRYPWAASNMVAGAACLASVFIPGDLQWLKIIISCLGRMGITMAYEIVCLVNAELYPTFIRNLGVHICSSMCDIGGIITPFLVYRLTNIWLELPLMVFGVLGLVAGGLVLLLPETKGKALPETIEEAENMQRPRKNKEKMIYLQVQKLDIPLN
Briefly: Cellular uptake ratio, OCT2-overexpressing HEK293 cells vs empty vector. The note with it: for OCT2 transport category: based on ratio uptake data at 1 µM; for uptake by OCT2 (normalised to empty vector): 1 µM and 100 µM substance. The essentials:
(§1)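 Flp-In HEK293 cells stably expressing transporter, or empty pcDNA5/FRT vector as control, incubated at 37 °C in HBSS with 10 mM HEPES, pH 7.4, with substrate. Uptake quantified by LC-MS with internal standard and normalised to total protein. Ratio = total uptake in transporter cells divided by that in empty-vector cells.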

The target of assay [3] is T3, OCT3 (Homo sapiens, UniProt O75751).
T3 construct: expressed in transfected cells; host or cells: HEK293, stably transfected; gift from Dr. Koepsell and Dr. Gorbulev (University of Würzburg)
T3 sequence (O75751 1-556): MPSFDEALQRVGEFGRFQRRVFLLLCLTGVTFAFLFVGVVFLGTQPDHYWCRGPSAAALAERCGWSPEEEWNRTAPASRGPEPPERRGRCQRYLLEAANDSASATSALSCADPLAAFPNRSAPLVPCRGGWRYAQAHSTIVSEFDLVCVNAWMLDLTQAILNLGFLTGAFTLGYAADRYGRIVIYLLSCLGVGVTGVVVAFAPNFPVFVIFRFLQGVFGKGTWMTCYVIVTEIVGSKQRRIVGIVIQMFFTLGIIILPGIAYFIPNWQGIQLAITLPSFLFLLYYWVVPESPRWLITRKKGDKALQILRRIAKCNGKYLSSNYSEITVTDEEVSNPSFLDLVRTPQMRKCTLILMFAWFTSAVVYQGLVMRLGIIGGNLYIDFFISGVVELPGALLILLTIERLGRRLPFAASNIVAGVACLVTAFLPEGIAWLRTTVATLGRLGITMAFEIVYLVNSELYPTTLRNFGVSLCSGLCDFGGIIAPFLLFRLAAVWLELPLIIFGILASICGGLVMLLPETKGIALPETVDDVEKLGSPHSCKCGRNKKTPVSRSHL
The experiment in a line: Cellular uptake ratio, OCT3-overexpressing HEK293 cells vs empty vector. The following applies: for OCT3 transport category: based on ratio uptake data at 1 µM. The essentials:
as §1

We go through seven compounds from paper PMC9687798, “Atypical Substrates of the Organic Cation Transporter 1” (Biomolecules, 2022).

Take `CCCCC[C@H](O)/C=C/[C@H]1[C@H](O)CC(=O)[C@@H]1C/C=C\CCCC(=O)O` [Prostaglandin E2, prostaglandin E2]: the “uptake of prostaglandins by OCT1*2 in comparison to wild-type” value in assay [1] is reported as “reduced to the level of the control cell line”.
As to `N=C(N)c1ccc(OCCCCCOc2ccc(C(=N)N)cc2)cc1` [Pentamidine, pentamidine], the “uptake by OCT1*2 in comparison to OCT1*1” value in assay [1] is reported as “to a small extent”. Further, the OCT2 transport category in assay [2] was 0 (no transport by OCT1, OCT2, and OCT3 occurred (i.e., no kinetic parameters or uptake ratio <2 without significance)). The OCT3 transport category in assay [3] is 0 (no transport by OCT1, OCT2, and OCT3 occurred (i.e., no kinetic parameters or uptake ratio <2 without significance)).
For the compound `Nc1nc(=O)n([C@@H]2CS[C@H](CO)O2)cc1F` [Emtricitabine, emtricitabine], the “uptake by OCT1*2 in comparison to OCT1*1” value in assay [1] is given as “reduction in uptake”. Besides, the “uptake by OCT2 (normalised to empty vector)” value in assay [2] is recorded as “cellular uptake by OCT2 was observed”. Moreover, in assay [3] (1 µM and 100 µM substance), the “uptake ratio by OCT3 (normalised to empty vector)” value was “below 2”.
In the case of `Nc1ccn([C@H]2CC[C@@H](CO)O2)c(=O)n1` [Zalcitabine, zalcitabine], the “uptake by OCT1*2 in comparison to OCT1*1” value in assay [1] was “reduction in uptake”. Further, in assay [2], the “uptake by OCT2 (normalised to empty vector)” value was “cellular uptake by OCT2 was observed” and the OCT2 transport category entry is “+ (good substrates of OCTs when the intrinsic clearance is between 5–15 or the ratio is 2–10)”. Also, the OCT3 transport category in assay [3] is 0 (no transport by OCT1, OCT2, and OCT3 occurred (i.e., no kinetic parameters or uptake ratio <2 without significance)).
On to `COc1cc(Cc2cnc(N)nc2N)cc(OC)c1OC` [Trimethoprim, trimethoprim], for which the “uptake by OCT1*2 in comparison to OCT1*1” value in assay [1] is “reduction in uptake”. In assay [2], the “uptake by OCT2 (normalised to empty vector)” value was “only minimal” and the OCT2 transport category result was “+/− (poor transport with a Clint < 5 or ratio between 1–2 with statistical significance (p < 0.05))”. Further, in assay [3], the OCT3 transport category was 0 (no transport by OCT1, OCT2, and OCT3 occurred (i.e., no kinetic parameters or uptake ratio <2 without significance)).
As for `N[C@@H](Cc1ccc(O)c(O)c1)C(=O)O` [Levodopa, levodopa], the OCT2 transport category in assay [2] is 0 (no transport by OCT1, OCT2, and OCT3 occurred (i.e., no kinetic parameters or uptake ratio <2 without significance)). Moreover, the OCT3 transport category in assay [3] was 0 (no transport by OCT1, OCT2, and OCT3 occurred (i.e., no kinetic parameters or uptake ratio <2 without significance)).
In the case of `CCCCC[C@H](O)/C=C/[C@@H]1[C@@H](C/C=C\CCCC(=O)O)[C@@H](O)C[C@H]1O` [Prostaglandin F2α, prostaglandin F2α], the “uptake of prostaglandins by OCT1*2 in comparison to wild-type” value in assay [1] is “reduced to the level of the control cell line”.
